Measurements published in BindingDB's records for doi:10.1016/j.ejmech.2021.113556 (Zhejiang University, 2021).
pIC50: −log10 of the molar value.

Tests used:
[1] = molecular target: Proteasome subunit beta type-6 (Homo sapiens) (UniProt P28072); experiment: Inhibition of caspase-like activity of human proteasome beta-1c subunit using SUC-LLE-AMC as flurogenic substrate preincubated for 15 mins followed by substrate addition and measured after 1 hr by fluorescence assay
[2] = molecular target: Proteasome subunit beta type-7 (Homo sapiens) (UniProt Q99436); experiment: Inhibition of human trypsin-like activity of 20s proteasome beta 2c subunit using SUC-KQL-AMC as flurogenic substrate preincubated for 15 mins followed by substrate addition and measured after 1 hr by fluorescence assay
Sequence of Proteasome subunit beta type-7 (Homo sapiens) (Q99436 whole entry, looked up): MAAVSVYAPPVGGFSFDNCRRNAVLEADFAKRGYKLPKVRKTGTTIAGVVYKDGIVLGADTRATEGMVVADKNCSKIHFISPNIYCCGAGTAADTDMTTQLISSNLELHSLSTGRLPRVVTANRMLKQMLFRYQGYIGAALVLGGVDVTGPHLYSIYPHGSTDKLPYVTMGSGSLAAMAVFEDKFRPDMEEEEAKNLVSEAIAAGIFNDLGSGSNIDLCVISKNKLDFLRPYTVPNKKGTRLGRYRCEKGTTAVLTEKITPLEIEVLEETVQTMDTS

Sequence of Proteasome subunit beta type-6 (Homo sapiens) (P28072 whole entry, looked up): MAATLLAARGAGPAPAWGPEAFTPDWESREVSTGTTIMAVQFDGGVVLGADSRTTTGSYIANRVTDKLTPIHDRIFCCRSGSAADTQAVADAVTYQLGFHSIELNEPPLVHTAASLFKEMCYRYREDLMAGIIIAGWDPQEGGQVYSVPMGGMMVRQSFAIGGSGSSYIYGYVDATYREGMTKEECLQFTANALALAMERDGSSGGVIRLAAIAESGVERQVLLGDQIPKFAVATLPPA

Compound	pIC50 [1]	pIC50 [2]
COc1ccc(C[C@H](NC(=O)[C@@H](C)NC(=O)N2CCC[C@@H](OC)C2)C(=O)N[C@@H](Cc2ccccc2)C(=O)[C@@]2(C)CO2)cc1	< 5.00	< 5.00
COc1ccc(C[C@H](NC(=O)[C@@H](C)NC(=O)N2CC[C@H](OC)C2)C(=O)N[C@@H](Cc2ccccc2)C(=O)[C@@]2(C)CO2)cc1	< 5.00	< 5.00
C[C@H](NC(=O)N1CCC(NC(=O)c2nccs2)CC1)C(=O)N[C@@H](Cc1c[nH]c2ccccc12)C(=O)N[C@@H](Cc1ccccc1)C(=O)[C@@]1(C)CO1	5.36	< 5.00
COc1ccc(C[C@H](NC(=O)[C@@H](C)NC(=O)N2CCC(OC)CC2)C(=O)N[C@@H](Cc2ccccc2)C(=O)[C@@]2(C)CO2)cc1	< 5.00	< 5.00
